Structures are written as SMILES.

For one test, the target named is T1, Dectin-1b (Homo sapiens, UniProt Q9BXN2).
T1 construct: host or cells: HEK-Blue Dectin-1b reporter cells (HEK293-derived)
T1 sequence (Q9BXN2 1-201 isoform Q9BXN2-2): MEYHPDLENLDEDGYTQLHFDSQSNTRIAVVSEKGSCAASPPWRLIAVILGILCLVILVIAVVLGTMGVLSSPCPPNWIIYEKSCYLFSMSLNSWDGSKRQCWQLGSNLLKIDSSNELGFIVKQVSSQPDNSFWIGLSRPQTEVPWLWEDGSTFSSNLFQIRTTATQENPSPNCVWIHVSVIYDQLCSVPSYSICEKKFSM
In words: Dectin-1 assay, HEK-Blue Dectin-1b SEAP reporter cells stimulated with beta-glucan peptide (BGP). The class given is cell-based. The note with it: HEK-Blue Dectin-1b cells; compounds at 1, 10 or 30 μM for 6 hours, then BGP 30 μg/mL 16-18 hours; SEAP adjusted by cell viability. The method, then: Compounds described herein are added to mammalian cells for bioactivity assessment. The HEK-Blue Dectin-1b cells line (InVivoGen) releases a reporter protein (secreted embryonic alkaline phosphatase, SEAP) to the culture supernatant in response to Dectin-1 activation. HEK-Blue reporter cells were grown in DMEM culture media with 10% decomplemented fetal calf serum (InvivoGen, 1% Pen/Strep antibiotic (InvivoGen), 0.2% Normocin antibiotic (InvivoGen). On the day prior to the assay, cells were seeded in a 96 flat-bottom well plate at 50,000 cells/well and further incubated for 20 hours. On the day of the assay cells were incubated with 1 μM, 10 μM or 30 μM of the compounds described herein or with 1 μM of the SYKi IV Dectin-1b Inhibitor (Millipore) or with DMSO (vehicle control) for 6 hours, followed by the addition of beta-glucan peptide (BGP, a Dectin-1 ligand at 30 μg/mL) and incubation for 16-18 hours. After incubation was concluded, the cultures supernatants were collected and Dectin-1 related activity was assessed by measurement of the SEAP-reporter protein presence, using Quanti-Blue assay (Invivogen) and these values were adjusted by the Cell Viability levels that was assessed using the Cell-Titer-Glo2 Reagent (Promega).
Results represent cell number adjusted SEAP levels in a triplicate setting for each condition and cell numbers and viability corrections reflected less than 5% corrections. See, e.g., FIG. 1 for compound A-3.

The test system of test [1] is Zymosan-induced production of IL-12p40 in monocyte-derived dendritic cells. In words: Monocyte derived DC (MoDC) assay, Zymosan-induced IL-12p40 (Luminex/ELISA). The class given is cell-based, human. The note with it: MoDC assay. The text has this:
Monocyte derived DC (MoDC) were differentiated from healthy human donor derived CD14+ monocytes. Commercially available freshly prepared Leukopaks were obtained from healthy blood donor and kept refrigerated on ice before spin centrifuged and the pelleted cells are rinsed and resuspended with MACS buffer (Miltenyi Biotec). Next, CD14+ monocytes were purified using MultiMACS™ Cell24 Separator-Plus instrumentation and reagents according to the manufacturer (Miltenyi Biotec) instructions. The resulting purified CD14^+ cell fraction was washed, enumerated, and subsequently cryopreserved for later use. At the experiment first day cryopreserved CD14′ cells were thawed, rinsed with culture media, and then resuspended in culture media principally composed of RPMI (Invitrogen) supplemented with 10% v/v heat inactivated FBS. For generation of MoDC, these CD14^+ cells were enumerated and seeded into 75 cm^2 tissue culture flasks in 30 mL of culture media supplemented with GM-CSF (40-100 ng/mL) and IL-4 (25 ng/mL). Every other day, half of the culture media was replaced with fresh media (containing the same cytokine supplementation) and after 6-7 days of culture, fully differentiated and matured MoDC were obtained as confirmed by conventional Immuno-phenotype markers (levels of expression or absence of surface CD80, CD83, CD86, CD209, HLA-DR, CD14 & CD64) that were verified by flow-cytometry. Fully differentiated (mature) MoDCs, were seeded into 96 flat-well plates and incubated with a various concentration of the compound described herein, or with control solution (DMSO), or with the pharmacologic inhibitors Cyclosporin-A (CsA) and BAY 61-3606 (which is a known inhibitor of Syk kinase) for 6 hours. Next, the MoDC culture well were added with Dectin-1(CLEC7a1)-ligand (Zymosan at 5 μg/mL), or the Toll-like receptor agonist R848, and further incubated for 18-20 hours. After incubation concluded, culture supernatants were collected, and the levels of inflammatory cytokines and chemokines was measured in a triplicate setting for each condition by Luminex® multiplex assay (FIG. 2) or by ELISA (FIG. 3).

For `C#CCCC1(CCOC(=O)[C@H]2CSC(C3CSC(c4ccccc4O)=N3)N2C)N=N1` (stereo partly drawn) [Compound D-1], the Activity on Dectin-1b was <30 µM.
Same read-out and setting: for `CN1[C@@H](C(=O)O)CS[C@H]1[C@H]1CSC(c2ccccc2)=N1` (single isomer, unassigned) [Compound F-2] the value was <30 µM; for `C#CCCC1(CCNC(=O)[C@H]2CSC(C3CSC(c4ccccc4O)=N3)N2C)N=N1` (stereo partly drawn) [Compound C-1], <30 µM.
On the same count and under the same terms, under `C[C@]1(C(=O)O)CSC(C2CSC(c3ccccc3O)=N2)N1` (stereo partly drawn) [Compound E-1, (4S)-2-(2-(2-hydroxyphenyl)-4,5-dihydrothiazol-4-yl)-4-methyl-thiazolidine-4-carboxylic acid] stands <30 µM.
As for `C#CCCC1(CCNC(=O)[C@H]2CS[C@@H]([C@@H]3CSC(c4ccccc4O)=N3)N2C)N=N1` [Compound C-3, (2S,4S)—N-(2-(3-(but-3-yn-1-yl)-3H-diazirin-3-yl)ethyl)-2-((S)-2-(2-hydroxyphenyl)-4,5-dihydrothiazol-4-yl)-3-methylthiazolidine-4-carboxamide], the Activity on Dectin-1b is <30 µM.
Regarding `CN1C(C2CSC(c3ccccc3O)=N2)SC[C@]1(C)C(=O)O` (stereo partly drawn) [Compound B-1, (4S)-2-(2-(2-hydroxyphenyl)-4,5-dihydrothiazol-4-yl)-3,4-dimethylthiazolidine-4-carboxylic acid], the Activity (at Dectin-1b; in test [1]) was <30 µM in each case.
For `C#CCCC1(CCNC(=O)[C@H]2CS[C@H]([C@@H]3CSC(c4ccccc4O)=N3)N2C)N=N1` [Compound C-2, (4S)—N-[2-(3-but-3-ynyldiazirin-3-yl)ethyl]-2-[(4S)-2-(2-hydroxyphenyl)-4,5-dihydrothiazol-4-yl]-3-methyl-thiazolidine-4-carboxamide], the Activity on Dectin-1b was <30 µM.
On the same count and under the same terms, for `CN1C(C2CSC(c3ccccc3O)=N2)SC[C@@H]1C(=O)O` (stereo partly drawn) [Compound A-1, (4S)-2-(2-(2-hydroxyphenyl)-4,5-dihydrothiazol-4-yl)-3-methylthiazolidine-4-carboxylic acid] the value was <30 µM.

The record behind these values is patent publication US20250197388A1, “COMPOUNDS, PHARMACEUTICAL COMPOSITIONS AND METHODS FOR TREATING INFLAMMATORY BOWEL DISEASE” (FLAGSHIP PIONEERING INNOVATIONS VI, LLC, priority 2022, published 2025).
